Test results as given in patent publication US20240148749A1 (priority 2021, published 2024).

Experiments:
Assay type in all cases: in vivo, mouse
control and CLP mice = assay: Novel Object Location test (NOL); settings: F(1,29)=0.0007, p=0.98; day 20
Protocol: Data shown are mean values (±SD). Gray bars represent MnTBAP-treated mice from either CLP or control groups, and black bars represent placebo-treated mice from either CLP or Control groups. Two-way analyses of variance (ANOVAs) (CLP vs Control×MnTBAP vs Placebo) were performed. When a significant interaction was observed, planned comparisons were performed for the CLP/Placebo group against the three other groups. The significance of the planned comparisons is indicated with asterisks (*p<0.05, **p<0.01, ***p<0.001, ****p<0.0001).
(§1) MnTBAP is commercially available: it is for example manufactured by Sigma-Aldrich, Calbiochem, etc. For use it is dissolved following the guidance provided by the manufacturer.
Twice a week after the CLP, survival mice were gently handled for at least four 5-min sessions to habituate to the experimenter. Then, 20 and 21 days after CLP, mice were submitted to the novel object location (NOL) and novel object recognition (NOR) tests. […]
The familiarization sessions consisted on 10 min of free exploration of two identical objects, placed inside the same open field arena that the mice had visited on the previous day. […] Then, the percentage of exploration of the new object was calculated, reflecting the retention of the familiar object memory at long-term (24 h). […]

Cd11b+ microglial cells = assay: Gene expression of microglial immuno-phenotype markers (RT-qPCR) in Cd11b+ microglial cells sorted from brain at 21 days
Protocol: (§2) We used peritonitis induced by CLP as a model of sepsis (Rittirsch et al., 2009). Briefly, animals were anesthetized with ketamine (Imalgene® 1000 100 mg/kg, Merial, France) and Xylazine (Rompun® 2% 20 mg/kg, Bayer, Germany) prior to surgery. After laparotomy, caecum was ligatured at the distal third with a 4.0 suture and the distal part was perforated twice with a 21 Gauge needle.
as §1
Brains were collected for cell dissociation and Cdllb-positive cell separation using a magnetic coupled antibody (MACS® Technology), according to the manufacturer's protocol (Miltenyi Biotec, Bergisch Gladbach, Germany) and as previously described (Schang et al., 2014). In brief, mice were intracardially perfused with NaCl 0,9%. The brains are then dissociated using the Neural Tissue Dissociation Kit containing trypsin and the gentleMACS Octo Dissociator with Heaters. From the resulting brain homogenate, cd11 b-positive cells were enriched using the anti-cd11 b MicroBeads. After elution the isolated cells were centrifuged for 5 min at 200G and conserved at −80° C.
Total RNA was isolated from cells using the RNAeasy Micro kit (Qiagen), and reverse-transcribed using Superscript® III Reverse transcriptase (Invitrogen). Real-time quantitative PCR was performed in duplicate for each sample using Power Sybr Green PCR Master Mix (Applied Biosystems) and the rate of dye incorporation was monitored using the StepOne™ Plus RealTime PCR system (Applied Biosystems). Data were analyzed by StepOne Plus RT PCR software v2.1 and Microsoft excel. Amplification specificity was assessed with a melting curve analysis. TBP transcript levels were used for normalisation of each target (=ΔCT). Real-time PCR CT values were analyzed using the 2^−(ΔCt) method to calculate the fold expression (Schmittgen et al., 2008). The data are presented as relative mRNA units with respect to control group (expressed as fold over control value). Primer sequences available upon request.
We have adopted nomenclature consistent with previous work in microglia (Chhor et al., 2013). We distinguished 3 types of phenotypes according to the mRNA expression levels of markers listed in brackets: pro-inflammatory phentoype (Ptgs2, Cd32, Cd86), alternative phenotype (Lgals3, Igf1 and CD206) and immunoregulatory phenotype (II1rn, II4ra, Socs3).
Quantification of pro-inflammatory markers (CD32, CD86 and Ptgs2 mRNA), anti-inflammatory markers (Lgals3, IGF1 and CD206 mRNA) and immuno-regulator markers (IL1-RA, IL4-Rα and SOCS3 mRNA) by RT-qPCR in Cd11b+ microglial cells magnetically sorted from the brain at 21 days. Control mice were non-operated but anesthetized. The data shown represent median values of n=5 mice per group. Two-way analyses of variance (ANOVAs) CLP vs Control×MnTBAP vs Placebo were performed. […] Data are represented as fold changes using the 2-ΔΔCT method.

brain tissue = assay: Cytokine and chemokine levels in mice brain at 21 days after CLP (Luminex); settings: CLP vs control × MnTBAP vs placebo
Protocol: as §2, §1
Brain: snap frozen brain samples (n=6 per condition and per time point) were thawed, lysed by mechanical agitation (lysing matrix), and supernatant was aliquoted and stored at −80° C. until analysis.
These samples were processed for Luminex® multiple cytokine and chemokine analysis (Bio-Plex® Pro™ Mouse Cytokine Standard 23-flex, Group I and Standard 9-flex, Group II). Fifty microlitres of sample was analyzed on the Bio-flex system (Bio-Rad) in accordance with the manufacturers instructions. Data analyses for all assays were performed using the Bio-flex Manager software. […] Normalization was done by weight of the frozen brain sample.
The data represent the level of protein expression in pg mg^−1 of brain tissue using Luminex®. Control mice were non-operated but anesthetized. Median values of n=5 mice per group are represented. […]

## O=C(O)c1ccc(/C2=C3\C=CC(=N3)/C(c3ccc(C(=O)O)cc3)=c3/cc/c4[n]3[Mn]([Cl])[n]3c2ccc3/C(c2ccc(C(=O)O)cc2)=C2/C=CC(=N2)\C=4c2ccc(C(=O)O)cc2)cc1 [MnTBAP, Manganese (III) tetrakis (4-benzoic acid)porphyrin chloride]
Control and CLP mice
  NOL exploration time, CLP vs control×MnTBAP vs placebo interaction: no significant CLP vs control×MnTBAP vs placebo interaction
Cd11b+ microglial cells; CLP-MnTBAP group vs CLP-placebo group, p=0.01, did not differ from Control-placebo
  IL1β expression in microglial cells: significantly lower
Cd11b+ microglial cells; CLP-MnTBAP group vs CLP-placebo group, p=0.023, did not differ from Control-placebo
  Lgals3 (M2a) gene expression in microglial cells: significantly lower
Cd11b+ microglial cells; MnTBAP alone (control mice)
  microglial immunophenotype: did not alter
Cd11b+ microglial cells; septic mice
  microglial immunoprofile: shifts microglial immunoprofile from a neurotoxic toward a neuroprotective phenotype
Cd11b+ microglial cells; septic mice, MnTBAP compared to the placebo group, p=0.026, did not differ from Control-placebo
  Ptgs2 (M1 marker) transcripts in microglial cells: significantly reduced
Cd11b+ microglial cells; septic mice, MnTBAP compared to the placebo group, p=0.047, did not differ from Control-placebo
  IL1RA (M2b marker) transcripts in microglial cells: significantly reduced
Brain tissue
  measured brain tissue cytokines, two-way ANOVA: did not show any CLP vs control×MnTBAP vs placebo interaction, or difference linked to condition or treatment between the groups
